# Test results taken from patent US9023882B2, “5-membered nitrogen containing heterocyclic derivatives and pharmaceutical compositions comprising the same” (Kissei Pharmaceutical Co., Ltd., priority 2007, dated 2015).
# pIC50: −log10 of the molar value.
# Assays:
# [1] = target: Xanthine oxidase (from bovine milk, Sigma) (Bos taurus (Bovine), UniProt P80457); assay: Xanthine oxidase inhibitory activity; assay type: biochemical; conditions: absorbance at 290 nm
# How it was run: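 Bovine milk enzyme at 0.02 units/mL in PBS was mixed with compound (DMSO stock diluted in PBS) and 200 μM xanthine stock, reacting 10 min at room temperature. Uric acid formation was read as absorbance at 290 nm; IC50 was derived with no-xanthine wells as 0% and no-compound control as 100%.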
# serum uric acid = assay: Serum hypouricemic effect; assay type: in vivo; conditions: 1 mg/kg oral, male CD (SD) IGS rats, 2 hours after administration
# Procedure: (1) Method for Measurement
# Test compounds at 1 mg/kg suspended in 0.5% methylcellulose solution were administered orally to overnight fasted male CD (SD) IGS rats (5-week-old, Charls River Japan). At 2 hours after administration, blood was collected under ether anesthesia from abdominal aorta, and serum was separated according to general method. Serum uric acid values were determined by use of uric acid measurement kit (Uric acid C-Test Wako: Wako), and percent decrease in uric acid was calculated according to the formula described below. Percent decrease in uric acid (%)=(Serum uric acid values in control animals−Serum uric acid values in animals administered test compounds)×100/Serum uric acid values in control animals (2) Results
# human URAT1 = human URAT1 (Homo sapiens (Human), UniProt Q96S37); assay: Inhibitory activity of uric acid transport with human URAT1 expressing cells; assay type: cell-based; conditions: COS-7; test compound 100 μM; 14C-labeled uric acid uptake in COS7 cells transiently expressing human URAT1
# Sequence of human URAT1 (Q96S37 whole entry): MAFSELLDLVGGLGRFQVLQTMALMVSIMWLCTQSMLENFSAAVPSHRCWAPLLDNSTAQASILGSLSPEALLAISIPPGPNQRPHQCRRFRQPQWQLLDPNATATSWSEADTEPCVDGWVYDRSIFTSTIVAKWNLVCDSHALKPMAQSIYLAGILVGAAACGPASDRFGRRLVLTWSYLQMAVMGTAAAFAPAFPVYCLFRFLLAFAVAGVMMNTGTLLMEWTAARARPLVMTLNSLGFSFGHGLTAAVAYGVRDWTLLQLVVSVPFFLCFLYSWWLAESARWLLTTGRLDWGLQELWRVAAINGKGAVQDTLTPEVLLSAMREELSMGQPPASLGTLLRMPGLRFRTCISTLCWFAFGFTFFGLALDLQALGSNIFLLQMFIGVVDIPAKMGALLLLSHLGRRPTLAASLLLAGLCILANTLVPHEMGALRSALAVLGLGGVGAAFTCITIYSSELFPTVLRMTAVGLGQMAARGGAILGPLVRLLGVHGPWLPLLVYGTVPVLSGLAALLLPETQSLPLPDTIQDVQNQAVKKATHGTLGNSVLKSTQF
# Procedure: (1) Preparation of Transiently Human URAT1 Expressing Cells
# Full length human URAT1 cDNA (NCBI Accession No. NM_144585) was subcloned into expression vector, pcDNA3.1 (Invitrogen). Human URAT1 expression vector was transfected into COS7 cells (RIKEN CELL BANK RCB0539) using Lipofectamine 2000 (Invitrogen). COS7 cells were cultured in collagen-coated 24 well plates (Asahi Techno Glass) at 2×10^5/well in D-MEM culture medium (Invitrogen) containing 10% fetal bovine serum (Sanko Junyaku) for 2 hours at 37° C. under the condition of 5% CO2. For 1 well, 2 μL of Lipofectamine 2000 was diluted in 50 μL of OPTI-MEM (Invitrogen) and allowed to stand at room temperature for 7 minutes (hereinafter referred to as Lipo2000-OPTI). For 1 well, 0.8 μg of human URAT1 expression vector was diluted in 50 μL of OPTI-MEM (Invitrogen) and combined gently with Lipo2000-OPTI. After standing at room temperature for 25 minutes, the mixture was added to COS7 cells at 100 μL/well. Furthermore, COS7 cells were cultured for 2 days at 37° C. under the condition of 5% CO2 and used for measuring inhibitory activity on the uptake.
# (2) Preparation of Test Compounds
# Test compounds were dissolved in DMSO (Wako) at 10 mM concentration and then diluted to 2 times higher concentration than intended with pre-treatment buffer (125 mM sodium gluconate, 4.8 mM potassium gluconate, 1.2 mM potassium dihydrogen phosphate, 1.2 mM magnesium sulfate, 1.3 mM calcium gluconate, 5.6 mM glucose, 25 mM Hepes, pH 7.4). Pre-treatment buffer without test compounds was used for control. […]
# All tests were performed on hot-plate at 37° C. […] After mixing, the radioactivity was counted in a liquid scintillation counter (PerkinElmer). The radioactivity in COST cells not transfected with URAT1 expression vector was also counted under the same condition as control. […] Percent inhibition (%)=[1−(B−C)/(A−C)]×100 A: Radioactivity in control B: Radioactivity in the case of addition of test compounds C: Radioactivity in COST cells not transfected with URAT1 expression vector
# [2] = test system: BBMV from human kidney cortex; assay: Inhibitory activity of uric acid transport with brush-border membrane vesicles (BBMV); assay type: biochemical; conditions: test compound 100 μM; uptake of 14C-labeled uric acid into human kidney cortex BBMV
# Procedure: Inhibitory activity of uric acid transport of test compounds was performed on the basis of methods described in a reference (Am. J. Physiol. 266 (Renal Fluid Electrolyte Physiol. 35): F797-F805, 1994) with a partial modification.
# (1) Preparation of BBMV from Human Kidney Cortex
# BBMV from human kidney cortex were purchased from KAC. Renal cortex was dissected from human kidney and cut into small pieces. Then, the cortex was homogenized in 5 volumes of ice-cold isotonic buffer (300 mM mannitol, 5 mM ethylene glycol-bis-(β-aminoethylether)-N,N,N′,N′-tetraacetic acid (EGTA), 12 mM tris(hydroxymethyl)aminomethane (Tris).HCl, pH 7.4). After adding 1 M magnesium chloride to a final concentration of 12 mM, and then the suspension was mixed and allowed to stand on ice for 15 minutes. The homogenized solution was centrifuged at 2,500×g for 15 minutes at 4° C., furthermore, the supernatant was centrifuged at 30,000×g for 30 minutes at 4° C. The pellet was resuspended in ice-cold buffer 1 (150 mM mannitol, 2.5 mM EGTA, 6 mM Tris.HCl, pH 7.4). After adding 1 M magnesium chloride to a final concentration of 12 mM, and then the suspension was mixed and allowed to stand on ice for 15 minutes. After centrifugation again at 2,500×g for 15 minutes at 4° C., furthermore, the supernatant was centrifuged at 30,000×g for 30 minutes at 4° C. The pellet was resuspended in ice-cold buffer 2 (100 mM mannitol, 100 mM potassium gluconate, 20 mM 2-[4-(2-hydroxyethyl)-1-piperazinyl]-ethanesulfonic acid (Hepes)-Tris, pH 7.4). After centrifugation at 30,000×g for 30 minutes at 4° C., the pellet was resuspended in buffer 2, and then the protein concentration was determined
# (2) Preparation of Test Compounds […]
# BBMV were thawed on ice. […] The uptake of uric acid into BBMV was measured by the rapid-filtration technique. […] Furthermore, filters were washed twice with 3 mL of stop solution and dissolved in 10 mL of Filter-Count (PerkinElmer), and the radioactivity was counted in a liquid scintillation counter (PerkinElmer). The radioactivity associated with the filters in the absence of BBMV was used as corrections. […]
# [3] = 0.02 units/mL, xanthine 200 μM, 10 minutes at room temperature
# Sequence of Xanthine oxidase (from bovine milk, Sigma) (P80457 whole entry): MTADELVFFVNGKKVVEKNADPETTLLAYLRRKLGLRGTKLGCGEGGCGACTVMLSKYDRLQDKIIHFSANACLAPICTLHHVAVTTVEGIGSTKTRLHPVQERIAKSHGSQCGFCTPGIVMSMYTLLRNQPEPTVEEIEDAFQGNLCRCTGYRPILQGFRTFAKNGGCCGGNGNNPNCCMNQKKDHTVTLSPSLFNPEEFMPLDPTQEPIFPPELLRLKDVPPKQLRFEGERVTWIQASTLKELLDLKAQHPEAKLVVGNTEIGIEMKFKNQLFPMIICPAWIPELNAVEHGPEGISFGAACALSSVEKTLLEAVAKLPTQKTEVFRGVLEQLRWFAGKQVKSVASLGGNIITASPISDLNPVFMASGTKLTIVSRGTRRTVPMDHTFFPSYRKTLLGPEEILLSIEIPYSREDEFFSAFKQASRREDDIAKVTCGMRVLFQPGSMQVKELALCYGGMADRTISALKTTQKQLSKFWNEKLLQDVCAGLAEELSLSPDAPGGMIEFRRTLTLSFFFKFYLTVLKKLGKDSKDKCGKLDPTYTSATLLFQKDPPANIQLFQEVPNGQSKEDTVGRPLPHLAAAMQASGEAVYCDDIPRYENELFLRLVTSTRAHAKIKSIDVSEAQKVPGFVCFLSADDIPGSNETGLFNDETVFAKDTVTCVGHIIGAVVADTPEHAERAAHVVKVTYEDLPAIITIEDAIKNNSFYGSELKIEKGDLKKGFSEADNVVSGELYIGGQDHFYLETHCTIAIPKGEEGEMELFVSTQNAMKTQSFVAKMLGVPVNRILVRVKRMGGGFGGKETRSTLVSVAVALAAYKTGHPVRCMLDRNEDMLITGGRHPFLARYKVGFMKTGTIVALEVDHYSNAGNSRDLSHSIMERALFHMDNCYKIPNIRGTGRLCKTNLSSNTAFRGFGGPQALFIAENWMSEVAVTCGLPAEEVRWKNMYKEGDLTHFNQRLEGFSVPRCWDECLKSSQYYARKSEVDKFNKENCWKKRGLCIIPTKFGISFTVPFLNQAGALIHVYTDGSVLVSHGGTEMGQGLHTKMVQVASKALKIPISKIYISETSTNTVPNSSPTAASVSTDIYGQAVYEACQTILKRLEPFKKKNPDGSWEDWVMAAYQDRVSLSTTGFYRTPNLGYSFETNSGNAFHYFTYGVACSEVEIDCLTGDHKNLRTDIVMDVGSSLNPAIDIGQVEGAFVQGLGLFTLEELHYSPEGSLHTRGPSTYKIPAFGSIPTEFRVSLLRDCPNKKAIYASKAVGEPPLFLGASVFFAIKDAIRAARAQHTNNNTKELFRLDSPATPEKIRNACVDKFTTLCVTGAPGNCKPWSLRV
pIC50 ([1]; 100 μM xanthine final),"pIC50 [1, 3]",SMILES,other results
8.28,–,N#Cc1cn(-c2ccc(C(=O)O)c(O)c2)cc1-c1ccsc1 [Example 314],Percent decrease in uric acid (hypouricemic effect) (serum uric acid): over 50%
8.11,–,N#Cc1cn(-c2ccc(C(=O)O)c(O)c2)cc1-c1cccs1 [Example 306],inhibition at 100 µM (human URAT1): 91%; inhibition % [2]: >90%
–,7.28,"N#Cc1cn(-c2cc(C(=O)O)ccn2)cc1-c1ccccc1 [Example 20, 2-(3-Cyano-4-phenylpyrrole-1-yl)isonicotinic acid]",inhibition at 100 µM (human URAT1): 77%; inhibition % [2]: >90%
8.21,–,N#Cc1cn(-c2ccc(C(=O)O)c(O)c2)cc1-c1ccccc1 [Example 301],Percent decrease in uric acid (hypouricemic effect) (serum uric acid): over 50%
8.09,–,N#Cc1cn(-c2ccc(C(=O)O)c(O)c2)cc1-c1ccccc1F [Example 319],–
8.31,–,N#Cc1cn(-c2ccc(C(=O)O)c(O)c2)nc1-c1ccccc1 [Example 302],–
8.77,–,N#Cc1cn(-c2ccc(C(=O)O)c(O)c2)cc1-c1ccco1 [Example 356],–
7.31,–,N#Cc1cn(-c2ccc(C(=O)O)c(O)c2)cc1-c1ccccc1Oc1ccccc1 [Example 303],–
–,8.33,N#Cc1cn(-c2ccc(C(=O)O)cc2)cc1CCC1CCCO1 (stereo not shown) [Example 259],–
–,7.40,N#Cc1cn(-c2ccc(C(=O)O)cc2)cc1-c1ccccc1OCc1cccc(F)c1 [Example 171],–
7.87,–,CCOc1cccc(-c2cn(-c3ccc(C(=O)O)c(O)c3)cc2C#N)c1 [Example 344],–
7.70,–,N#Cc1cn(-c2cc(C(=O)O)ccn2)cc1C1=CCCCC1 [Example 370],–
–,8.30,N#Cc1cn(-c2ccc(C(=O)O)cc2)cc1-c1cccc(OCCCO)c1 [Example 150],–
8.17,–,Cc1ccc(-c2cn(-c3ccc(C(=O)O)c(O)c3)cc2C#N)cc1 [Example 317],–
–,8.44,N#Cc1cn(-c2ccc(C(=O)O)cc2)cc1C(=O)NCc1ccccc1 [Example 227],–
7.96,–,N#Cc1cn(-c2ccc(C(=O)O)c(O)c2)cc1-c1ccc2c(c1)OCO2 [Example 321],–
8.06,–,N#Cc1ccn(-c2ccc(C(=O)O)c(O)c2)c1 [Example 358],–
–,8.18,N#Cc1cn(-c2ccc(C(=O)O)cc2F)cc1-c1ccccc1 [Example 203],–
–,8.29,N#Cc1cn(-c2ccc(C(=O)O)cc2)cc1-c1ccc(C(=O)O)cc1 [Example 210],–
7.59,–,Cc1cccc(-c2cn(-c3cc(C(=O)O)ccn3)cc2C#N)c1 [Example 362],–
8.10,–,N#Cc1cn(-c2ccc(C(=O)O)c(O)c2)cc1C(=O)O [Example 299],–
7.72,–,O=C(O)c1ccc(-n2cc(C(=O)O)c(C(F)(F)F)c2)cc1O [Example 297],–
8.48,–,CCCCc1cn(-c2ccc(C(=O)O)c(O)c2)cc1C#N [Example 355],inhibition at 100 µM (human URAT1): 89%; inhibition % [2]: >90%
